Activity calls are given as the source filed them. No cut-off for these calls is given here.
Legend:
[1] = molecular target: T1, Programmed cell death protein 1/Programmed cell death 1 ligand 1 (Homo sapiens, UniProt Q15116+Q9NZQ7); test: Inhibition of PD-1/PDL-1 (unknown origin) interaction incubated for 15 mins by TR-FRET assay; assay type: protein-complex assay
[2] = molecular target: T1, Programmed cell death protein 1/Programmed cell death 1 ligand 1; test: Inhibition of PD-1/PDL-1 (unknown origin) interaction at 1 uM incubated for 15 mins by TR-FRET assay; assay type: protein-complex assay
[3] = tested on: MDA-MB-231; test: Cytotoxicity against human MDA-MB-231 cells assessed as cell killing by PBMC cell activation at 1 uM incubated for 24 hrs by LDH assay; assay type: functional, cell-based
[4] = tested on: MDA-MB-231; test: Cytotoxicity against human MDA-MB-231 cells assessed as cell killing at 2 uM incubated for 24 hrs by LDH assay; assay type: functional, cell-based

T1 sequence (Q15116 whole entry): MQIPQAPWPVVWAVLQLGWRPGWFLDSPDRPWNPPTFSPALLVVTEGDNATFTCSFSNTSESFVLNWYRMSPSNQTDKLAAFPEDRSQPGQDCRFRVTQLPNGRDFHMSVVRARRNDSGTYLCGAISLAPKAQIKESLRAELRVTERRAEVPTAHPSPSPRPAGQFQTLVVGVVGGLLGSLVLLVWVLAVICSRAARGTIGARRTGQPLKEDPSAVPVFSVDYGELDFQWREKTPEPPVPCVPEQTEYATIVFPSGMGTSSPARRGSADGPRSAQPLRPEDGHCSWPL
T1 sequence (Q9NZQ7 whole entry): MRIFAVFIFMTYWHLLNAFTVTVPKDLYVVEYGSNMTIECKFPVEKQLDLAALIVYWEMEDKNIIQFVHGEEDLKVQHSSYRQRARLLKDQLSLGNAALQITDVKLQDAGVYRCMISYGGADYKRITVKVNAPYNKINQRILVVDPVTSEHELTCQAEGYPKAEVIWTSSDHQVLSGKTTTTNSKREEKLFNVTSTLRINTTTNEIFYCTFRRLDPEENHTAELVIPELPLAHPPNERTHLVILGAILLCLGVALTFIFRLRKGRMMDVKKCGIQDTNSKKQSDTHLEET

In the case of `CC(=O)NCCNCc1ccc(NC(=O)c2cccc(-c3ccccc3)c2C)nc1`, the IC50 [1] is reported as > 1 µM and the inhibition [2] is reported as 44.2%.
With `COc1cccc(-c2cccc(C(=O)Nc3ccc(CNCCNC(C)=O)cn3)c2Cl)c1` the IC50 [1] was > 1 µM and the inhibition [2] was 46.1%.
In the case of `O=C(Nc1ccc(CN2CC[C@@H](O)C2)cn1)c1cccc(-c2ccccc2)c1Cl`, the IC50 [1] is reported as 0.373 µM.
In the case of `COC(=O)C1CN(Cc2ccc(NC(=O)c3cccc(-c4ccccc4)c3Cl)nc2)C1`, the IC50 [1] is reported as > 1 µM and the inhibition [2] is reported as 32.5%.
With `COc1ccc(-c2cccc(C(=O)Nc3ccc(CNCCNC(C)=O)cn3)c2Cl)cc1` the IC50 [1] was > 1 µM and the inhibition [2] was 8.37%.
`CN(C)CCNCc1ccc(NC(=O)c2cccc(-c3ccccc3)c2Cl)nc1` was tested, and the IC50 [1] was > 1 µM and the inhibition [2] was 27.7%.
In the case of `COc1ccccc1-c1cccc(C(=O)Nc2ccc(CNCCNC(C)=O)cn2)c1Cl`, the IC50 [1] is reported as > 1 µM and the inhibition [2] is reported as 5.52%.
`COc1ccc(-c2cccc(C(=O)Nc3ccc(CNCCNC(C)=O)cn3)c2Cl)cc1OC` was tested, and the IC50 [1] was > 1 µM.
In the case of `CC(=O)NCCNCc1ccc(NC(=O)c2cccc(-c3ccc(F)cc3)c2Cl)nc1`, the IC50 [1] is reported as > 1 µM and the inhibition [2] is reported as 6.96%.
With `COC(=O)[C@H]1CCN(Cc2ccc(NC(=O)c3cccc(-c4ccccc4)c3Cl)nc2)C1` the IC50 [1] was > 1 µM and the inhibition [2] was 50.6%.
In the case of `CC(=O)NCCNCc1ccc(NC(=O)c2cccc(-c3ccc(F)c(F)c3)c2Cl)nc1`, the IC50 [1] is reported as > 1 µM and the inhibition [2] is reported as 2.32%.
For `COCCOc1cccc(-c2cccc(C(=O)Nc3ccc(CNCCNC(C)=O)cn3)c2Cl)c1`, the IC50 [1] was > 1 µM and the inhibition [2] was 5.29%.
In the case of `O=C(Nc1ccc(CNCCO)c(F)n1)c1cccc(-c2ccccc2)c1Cl`, the IC50 [1] is reported as 0.429 µM.
`CC(=O)NCCNCc1ccc(NC(=O)c2cccc(-c3ccccc3)c2Cl)nc1C(F)(F)F` was tested, and the IC50 [1] was > 1 µM and the inhibition [2] was 33.8%.
`O=C(Nc1ccc(CNCCO)cn1)c1cccc(-c2ccccc2)c1Cl` was tested, and the IC50 [1] was 0.502 µM.
`CC(=O)NCCNCc1ccc(NC(=O)c2cccc(-c3ccccc3)c2Cl)nc1F` was tested, and the IC50 [1] was 0.581 µM.
`CC(=O)NCCNCc1ccc(NC(=O)c2cccc(-c3ccccc3)c2Cl)cc1` was tested, and the IC50 [1] was > 1 µM and the inhibition [2] was 9.86%.
`O=C(Nc1ccc(CN2CC(C(=O)O)C2)cn1)c1cccc(-c2ccccc2)c1Cl` showed an IC50 [1] of 0.645 µM.
With `O=C(Nc1ccc(CN2CC(O)C2)cn1)c1cccc(-c2ccccc2)c1Cl` the IC50 [1] was 0.528 µM.
In the case of `O=C(Nc1ccc(CNCCO)c(C(F)(F)F)n1)c1cccc(-c2ccccc2)c1Cl`, the IC50 [1] is reported as > 1 µM and the inhibition [2] is reported as 41.5%.
For `O=C(Nc1ccc(CN2CC[C@H](C(=O)O)C2)cn1)c1cccc(-c2ccc3c(c2)OCCO3)c1`, the IC50 [1] was > 1 µM and the inhibition [2] was “inactive”.
`CC(=O)NCCNCc1ccc(NC(=O)c2cccc(-c3cc(F)c(F)c(F)c3)c2Cl)nc1` was tested, and the IC50 [1] was > 1 µM and the inhibition [2] was 3.52%.
In the case of `CC(=O)NCCNCc1ccc(NC(=O)c2cccc(-c3ccccc3)c2Cl)nc1`, the IC50 [1] is reported as 0.496 µM.
With `COc1nc(NC(=O)c2cccc(-c3ccccc3)c2Cl)ccc1CNCCNC(C)=O` the IC50 [1] was > 1 µM and the inhibition [2] was 28.2%.
In the case of `CC(=O)NCCNCc1cccc(NC(=O)c2cccc(-c3ccccc3)c2Cl)n1`, the IC50 [1] is reported as > 1 µM and the inhibition [2] is reported as 15.8%.
For `COC1CN(Cc2ccc(NC(=O)c3cccc(-c4ccccc4)c3Cl)nc2)C1`, the IC50 [1] was > 1 µM and the inhibition [2] was 44%.
For `O=C(Nc1ccc(CN2CC[C@H](C(=O)O)C2)cn1)c1cccc(-c2ccccc2)c1Cl`, the IC50 [1] was 0.173 µM.
`CC(=O)NCCNCc1ccc(NC(=O)c2cccc(-c3ccc4c(c3)OCCO4)c2Cl)nc1` showed an IC50 [1] of 0.284 µM.
`CC(=O)NCCNCc1ccnc(NC(=O)c2cccc(-c3ccccc3)c2Cl)c1` gave an IC50 [1] of 0.894 µM.
With `O=C(Nc1ccc(CN2CC[C@H](C(=O)O)C2)cn1)c1cccc(-c2ccc3c(c2)OCCO3)c1Cl` the IC50 [1] was 0.0162 µM, the Activity [3] was “Active” and the Activity [4] was “inactive”.
With `O=C(Nc1ccc(CN2CCCC[C@H]2C(=O)O)cn1)c1cccc(-c2ccccc2)c1Cl` the IC50 [1] was > 1 µM and the inhibition [2] was 41.2%.
In the case of `O=C(Nc1ccc(CN2CC[C@H](C(=O)O)C2)cn1)c1cccc(-c2ccc3c(c2)OCCO3)c1F`, the IC50 [1] is reported as > 1 µM and the inhibition [2] is reported as “inactive”.
For `O=C(Nc1ccc(CN2CC[C@H](C(=O)O)C2)cn1)c1cccc(-c2ccc3c(c2)OCCO3)c1Br`, the IC50 [1] was 0.0465 µM.
With `CO[C@H]1CCc2c(-c3cccc(C(=O)Nc4ccc(CNCCNC(C)=O)cn4)c3Cl)cccc21` the IC50 [1] was > 1 µM and the inhibition [2] was 7.75%.
Work on `COCCNCc1ccc(NC(=O)c2cccc(-c3ccccc3)c2Cl)nc1` yielded an IC50 [1] of 0.797 µM.
With `CC(=O)NCCNCc1ccc(NC(=O)c2cccc(-c3cccc4c3CC[C@@H]4O)c2Cl)nc1` the IC50 [1] was > 1 µM and the inhibition [2] was “inactive”.
`O=C(Nc1ccc(CN2CCC(O)CC2)cn1)c1cccc(-c2ccccc2)c1Cl` gave an IC50 [1] of 0.46 µM.
Compound `O=C(Nc1ccc(CNC[C@@H](O)CO)cn1)c1cccc(-c2ccccc2)c1Cl` has an IC50 [1] of 0.442 µM.
For `COc1nc(NC(=O)c2cccc(-c3ccccc3)c2Cl)ccc1CNCCN(C)C`, the IC50 [1] was > 1 µM and the inhibition [2] was 11.6%.
With `CC(=O)NCCNCc1ccc(NC(=O)c2cccc(-c3ccncc3)c2Cl)nc1` the IC50 [1] was > 1 µM and the inhibition [2] was “inactive”.
`CC(=O)NCCNCc1ccc(NC(=O)c2cccc(-c3ccc(S(C)(=O)=O)cc3)c2Cl)nc1` was tested, and the IC50 [1] was > 1 µM and the inhibition [2] was “inactive”.
`CC(=O)NCCNCc1ccc(NC(=O)c2cccc(-c3cccc(CO)c3)c2Cl)nc1` was tested, and the IC50 [1] was > 1 µM and the inhibition [2] was 2.5%.

— ChEMBL document CHEMBL5038680, “Design, Synthesis, and Evaluation of PD-1/PD-L1 Antagonists Bearing a Benzamide Scaffold” (ACS Med Chem Lett, 2022)
